{"source": "paper doi:10.1101/2024.08.25.609621", "about": "(bioRxiv, 2024)", "key": {"[1]": {"target": "SARS-CoV-2 NSP3 macrodomain (Mac1) (Severe acute respiratory syndrome coronavirus 2, UniProt P0DTD1)", "experiment": "biochemical", "type": "binding"}, "[2]": {"target": "SARS-CoV-2 NSP3 macrodomain (Mac1), P43 crystal form (Severe acute respiratory syndrome coronavirus 2, UniProt P0DTD1)", "type": "binding", "details": "for binding by crystal soaking: P43 crystal form, repeated attempts, in words"}, "[3]": {"details": "dose-response, read-out: SARS CoV-2 macrodomain HTRF assay: IC50"}, "[4]": {"details": "dose-response, read-out: SARS CoV-2 macrodomain HTRF assay: Ki"}, "[5]": {"details": "from SARS CoV-2 macrodomain HTRF assay"}, "[6]": {"details": "ligand modeling in Mac1 crystal structure"}, "[7]": {"details": "stereoisomer(s) modeled in Mac1 crystal structure"}, "[8]": {"details": "Single dose, 200 μM, mean of three technical replicates, read-out: Average % competition"}, "[9]": {"details": "preliminary screen, compound at 200 μM, mean of 3-4 technical replicates, read-out: % competition in HTRF assay"}, "[10]": {"details": "ligand modeling in Mac1 crystal soak"}, "[11]": {"details": "SARS CoV-2 macrodomain HTRF assay"}, "[12]": {"details": "SARS CoV-2 macrodomain HTRF assay, read-out: Ki"}, "[13]": {"details": "stereoisomer(s) of ligand modeled in Mac1 crystal structure"}, "[14]": {"details": "Dose-response, SARS CoV-2 macrodomain HTRF assay, read-out: IC50"}, "[15]": {"details": "Single dose, 200 μM, mean of three technical replicates"}}, "note": "Like-named read-outs stand apart in the source and are kept apart here."}
{"smiles": "C[C@H]1CC[C@H](CO)N(c2ncnc3[nH]ccc23)C1", "note": "(racemic) [AVI-4063]", "values": [{"measurement": "IC50", "setting": "[1]; [3]", "value": 56, "unit": "µM"}, {"measurement": "Ki", "setting": "[1]; [4]", "value": 52, "unit": "µM"}, {"measurement": "Ligand efficiency (binding enery per heavy atom)", "setting": "[1]; [5]", "value": 0.33}, {"measurement": "Number of isomers bound", "setting": "[2]; [6]", "value": 1}]}
{"smiles": "C[C@@H]1CCN(c2ncnc3[nH]ccc23)[C@H](CO)C1", "note": "(racemic) [AVI-4064]", "values": [{"measurement": "IC50", "setting": "[1]; [3]", "value": 100, "unit": "µM"}, {"measurement": "Ki", "setting": "[1]; [4]", "value": 93, "unit": "µM"}, {"measurement": "Ligand efficiency (binding enery per heavy atom)", "setting": "[1]; [5]", "value": 0.31}, {"measurement": "Number of isomers bound", "setting": "[2]; [6]", "value": 2}, {"measurement": "Isomers modeled", "setting": "[2]; [7]", "value": "RS,SR"}]}
{"smiles": "Nc1ncnc2c1ncn2[C@@H]1O[C@H](COP(=O)(O)OP(=O)(O)OC[C@H]2O[C@@H](O)[C@H](O)[C@@H]2O)[C@@H](O)[C@H]1O.[Na].[Na]", "note": "[ADP-ribose, reference compound]", "values": [{"measurement": "Hill slope", "setting": "[1]; HTRF dose-response fit, Mac1", "value": 1.1}, {"measurement": "X-ray crystal structure", "setting": "[2]; crystal structure with Mac1 determined (TRUE)", "value": "TRUE"}]}
{"smiles": "O=C(O)C1CCCN1S(=O)(=O)c1cccc2nsnc12", "note": "(stereo not shown) [AVI-2]", "values": [{"measurement": "inhibition at 200 µM", "setting": "[1]; [8]", "value": 23, "unit": "%"}, {"measurement": "inhibition at 200 µM", "setting": "[1]; [9]", "value": 23, "unit": "%"}, {"measurement": "Number of isomers bound", "setting": "[2]; [10]", "value": 1}]}
{"smiles": "c1ccc(-n2nnnc2CSc2nnc(NC3CC3)s2)cc1", "note": "[AVI-286]", "values": [{"measurement": "Isomers modeled", "setting": "[2]", "value": "achiral"}, {"measurement": "Number of isomers bound", "setting": "[2]", "value": 1}]}
{"smiles": "O=C(O)C(c1ccccc1)n1sc2ccccc2c1=O", "note": "(stereo not shown) [AVI-288]", "values": [{"measurement": "Number of isomers bound", "setting": "[2]; [6]", "value": 1}]}
{"smiles": "COC1CCCN(S(=O)(=O)c2cc(Cl)cnc2N)C1", "note": "(stereo not shown) [AVI-290]", "values": [{"measurement": "binding by crystal soaking", "setting": "[2]", "value": "failed to observe binding"}]}
{"smiles": "CC(C)n1nnnc1SCc1c(C(=O)O)sc2cccc(F)c12", "note": "[AVI-291]", "values": [{"measurement": "Number of isomers bound", "setting": "[2]; [6]", "value": 1}, {"measurement": "Isomers modeled", "setting": "[2]; [7]", "value": "achiral"}]}
{"smiles": "Nc1ncc(Cl)cc1S(=O)(=O)N1CCCC(O)C1", "note": "(stereo not shown) [AVI-295]", "values": [{"measurement": "binding by crystal soaking", "setting": "[2]", "value": "failed to observe binding"}]}
{"smiles": "Nc1nnc(SCCn2c(=O)oc3ccccc32)s1", "note": "[AVI-296]", "values": [{"measurement": "Isomers modeled", "setting": "[2]", "value": "achiral"}, {"measurement": "Number of isomers bound", "setting": "[2]", "value": 1}]}
{"smiles": "CC1CC(C(=O)O)CCN1C(=O)c1ccc2c(c1)NC(=O)CO2", "note": "(stereo not shown) [AVI-303]", "values": [{"measurement": "inhibition at 200 µM", "setting": "[1]; [8]", "value": "< 10", "unit": "%"}, {"measurement": "inhibition at 200 µM", "setting": "[1]; [9]", "value": "< 10", "unit": "%"}, {"measurement": "Number of isomers bound", "setting": "[2]; [10]", "value": 1}]}
{"smiles": "OCC(Cc1ccccc1)Nc1ncnc2[nH]ccc12", "note": "(stereo not shown) [AVI-313]", "values": [{"measurement": "Ligand efficiency (binding enery per heavy atom)", "setting": "[1]; [11]", "value": 0.27}, {"measurement": "Ki", "setting": "[1]; [12]", "value": 120, "unit": "µM"}, {"measurement": "IC50", "setting": "[1]; read-out: HTRF IC50", "value": 130, "unit": "µM"}, {"measurement": "Number of isomers bound", "setting": "[2]; [10]", "value": 2}, {"measurement": "Isomers modeled", "setting": "[2]; [13]", "value": "S,R"}]}
{"smiles": "O=C(Nc1ccsc1C(=O)O)c1ccc2c(c1)OCO2", "note": "[AVI-316]", "values": [{"measurement": "Number of isomers bound", "setting": "[2]; [10]", "value": 1}, {"measurement": "Isomers modeled", "setting": "[2]; [13]", "value": "achiral"}]}
{"smiles": "Cc1sc2ncnc(Sc3ccccc3C(=O)O)c2c1C", "note": "[AVI-317]", "values": [{"measurement": "IC50", "setting": "[1]; [14]", "value": "> 1000", "unit": "µM"}, {"measurement": "Number of isomers bound", "setting": "[2]; [10]", "value": 1}, {"measurement": "Isomers modeled", "setting": "[2]; [13]", "value": "achiral,achiral"}]}
{"smiles": "Cc1c(C)n(Cc2ccccc2)c2ncnc(N)c12", "note": "[AVI-321]", "values": [{"measurement": "inhibition at 200 µM", "setting": "[1]; [8]", "value": 19, "unit": "%"}, {"measurement": "inhibition at 200 µM", "setting": "[1]; [9]", "value": 19, "unit": "%"}, {"measurement": "Number of isomers bound", "setting": "[2]; [10]", "value": 1}, {"measurement": "Isomers modeled", "setting": "[2]; [13]", "value": "achiral"}]}
{"smiles": "CC(CNC(=O)c1ccc2c(c1)CCC(=O)N2)C(=O)O", "note": "(stereo not shown) [AVI-328]", "values": [{"measurement": "Ligand efficiency (binding enery per heavy atom)", "setting": "[1]; [11]", "value": 0.25}, {"measurement": "Ki", "setting": "[1]; [12]", "value": 210, "unit": "µM"}, {"measurement": "IC50", "setting": "[1]; read-out: HTRF IC50", "value": 220, "unit": "µM"}, {"measurement": "Number of isomers bound", "setting": "[2]; [10]", "value": 2}, {"measurement": "Isomers modeled", "setting": "[2]; [13]", "value": "R,S"}]}
{"smiles": "Cc1ccc2c(c1)CC[C@@H](C(=O)Nc1nnc3n1CCCC3)O2", "note": "[AVI-329]", "values": [{"measurement": "Number of isomers bound", "setting": "[2]", "value": 1}]}
{"smiles": "O=C1CCc2cc(C(=O)N3CC(C(=O)O)CCC34CCCC4)c(F)cc2N1", "note": "(stereo not shown) [AVI-338]", "values": [{"measurement": "IC50", "setting": "[1]; [14]", "value": 800, "unit": "µM"}, {"measurement": "Ligand efficiency (binding enery per heavy atom)", "setting": "[1]; [11]", "value": 0.16}, {"measurement": "Ki", "setting": "[1]; [12]", "value": 740, "unit": "µM"}, {"measurement": "Number of isomers bound", "setting": "[2]; [6]", "value": 1}]}
{"smiles": "Nc1cc(N2CCC3CCCCC3C2)ncn1", "note": "(stereo not shown) [AVI-339]", "values": [{"measurement": "IC50", "setting": "[1]; [14]", "value": "> 1000", "unit": "µM"}, {"measurement": "Average % competition", "setting": "[1]; [15]", "value": "<10", "unit": "%"}]}
{"smiles": "CC1(c2ccc(F)cc2)CN(C(=O)c2cnc(N)nc2C(F)(F)F)C1", "note": "[AVI-340]", "values": [{"measurement": "Average % competition", "setting": "[1]", "value": 20, "unit": "%"}]}
{"smiles": "Cc1cc2c(=O)n(CCN3C(=O)c4ccccc4S3(=O)=O)nnc2s1", "note": "[AVI-341]", "values": [{"measurement": "inhibition at 200 µM", "setting": "[1]; [8]", "value": 11, "unit": "%"}, {"measurement": "inhibition at 200 µM", "setting": "[1]; [9]", "value": 11, "unit": "%"}, {"measurement": "Number of isomers bound", "setting": "[2]; [10]", "value": 1}, {"measurement": "Isomers modeled", "setting": "[2]; [13]", "value": "achiral"}]}
{"smiles": "Cn1ccc2cc(NC(=O)C3CC(=O)NC4CCCCC43)ccc21", "note": "(stereo not shown) [AVI-342]", "values": [{"measurement": "Average % competition", "setting": "[1]", "value": "<10", "unit": "%"}]}
{"smiles": "Cc1nc(N)ncc1C(=O)NCC(O)Cc1ccc(Cl)cc1", "note": "(stereo not shown) [AVI-343]", "values": [{"measurement": "Average % competition", "setting": "[1]", "value": "<10", "unit": "%"}]}
{"smiles": "COc1ccc(-c2nccc(N3CCC(c4ccsc4)CC3)n2)cc1", "note": "[AVI-344]", "values": [{"measurement": "Average % competition", "setting": "[1]", "value": "<10", "unit": "%"}]}
{"smiles": "CNc1ccc(NS(=O)(=O)c2cc3cccc(C)c3s2)cn1", "note": "[AVI-345]", "values": [{"measurement": "inhibition at 200 µM", "setting": "[1]; [8]", "value": 18, "unit": "%"}, {"measurement": "inhibition at 200 µM", "setting": "[1]; [9]", "value": 18, "unit": "%"}, {"measurement": "Number of isomers bound", "setting": "[2]; [6]", "value": 1}, {"measurement": "Isomers modeled", "setting": "[2]; [7]", "value": "achiral"}]}
{"smiles": "O=c1[nH]c2ccccc2cc1CNc1nc(C2CC2)ns1", "note": "[AVI-346]", "values": [{"measurement": "IC50", "setting": "[1]; [14]", "value": "> 1000", "unit": "µM"}, {"measurement": "Average % competition", "setting": "[1]; [15]", "value": "<10", "unit": "%"}]}
{"smiles": "Cc1ccc(CC(=O)N2CCSC23CC(C(=O)O)C3)cc1O", "note": "(stereo not shown) [AVI-347]", "values": [{"measurement": "Average % competition", "setting": "[1]", "value": "<10", "unit": "%"}]}
{"smiles": "CC1CCN(C(=O)c2ccc3c(c2)nc(CO)n3C)CC1C(=O)O", "note": "(stereo not shown) [AVI-348]", "values": [{"measurement": "inhibition at 200 µM", "setting": "[1]; [8]", "value": "< 10", "unit": "%"}, {"measurement": "inhibition at 200 µM", "setting": "[1]; [9]", "value": "< 10", "unit": "%"}, {"measurement": "Number of isomers bound", "setting": "[2]; [10]", "value": 1}]}
{"smiles": "CC(NC(=O)c1ccc(N)nc1Cl)C(O)c1cccc(F)c1", "note": "(stereo not shown) [AVI-349]", "values": [{"measurement": "Average % competition", "setting": "[1]", "value": 15, "unit": "%"}]}
{"smiles": "CC(C)(O)[C@H]1CCCN1c1ncnc2[nH]ccc12", "note": "[AVI-607, 2-[(2R)-1-{7H-Pyrrolo[2,3-d]pyrimidin-4-yl}pyrrolidin-2-yl]propan-2-ol]", "values": [{"measurement": "Ligand efficiency", "setting": "[1]; binding energy per heavy atom", "value": 0.41}, {"measurement": "Ki", "setting": "[1]; [4]", "value": 4.7, "unit": "µM"}, {"measurement": "Ligand efficiency (binding enery per heavy atom)", "setting": "[1]; [5]", "value": 0.41}, {"measurement": "IC50", "setting": "[1]; read-out: HTRF IC50", "value": 5.1, "unit": "µM"}, {"measurement": "Number of isomers bound", "setting": "[2]; [10]", "value": 1}]}
